Reference: US20140034581A1, “LIQUID PRODUCTS AND METHOD FOR EMULSIFYING OIL, AND USE THEREOF IN THE TREATMENT OF OIL CONTAMINATIONS” (MAN OIL GROUP AG, priority 2011, published 2014)

Assay: flash point
Format: physicochemical
Conditions: pure glycol component

Compound: CC(O)CO (stereo not shown) [1,2-Propandiol]
- flash point: > 102 °C
